# Experiments:
# [1] = Example 1: body weight, body fat and feed intake of mice fed feed supplemented with 0.5% test compound; assay type: in vivo, CDF1 male mice
# Protocol: (§1) 5-Sitosten-3-one was prepared according to the method of Parish (Parish, E. J., et al., Synthetic Communication, 22, pp.2839-2847, 1992) by using β-sitosterol (Tokyo Chemical Industry Co., Ltd.) as a starting material and used in the experiments. The content ratio of 24-ethyl and 24-methyl compounds in the synthesized product was 6.5:3.5. As experimental animals, six CDF1 male mice (5-week old, Charles River Japan Inc.) were used in each experimental group. The animals were fed in aluminum cages for mice, and allowed to feed and water ad libitum. The animals were fed for 2 weeks under feeding conditions at a temperature of 24±1° C. and a relative humidity of 55±5%, where light and darkness were controlled to change every 12 hours, and each cage and floor mat (white flakes) were exchanged twice a week.
# (§2) Modified AIN (Oriental Yeast Co.) was used as basic feed and mixed with 0.5% 5-sitosten-3-one to prepare test feeds. A feed used as a positive control was prepared by adding 0.5% of 4-cholesten-3-one (Japanese Patent Unexamined Publication No. Hei 5-170651/1993) to the basic feed. Non-treated mice as a control were fed solely with the basic feed. The basic feed was composed of 22.8% crude protein, 54.1% carbohydrates, 6.0% lipids, 4.9% fibers, 2.9% ash, and 8.7% water, and its calorie was 1,523 kJ. The feed was stored at 4° C. after preparation, and a fresh feed was supplied every day.
# (§3) The animals were weighed at given intervals of time, and the average values and standard errors of the experimental groups were determined. In addition, feed consumptions were measured at given intervals of time and daily averages per mouse were determined. The animals were observed every day. After the end of the feeding, the animals were anesthetized to death with carbon dioxide gas, and bloods were collected from the vena cava to obtain serums. The animals were autopsied, and the brains, lungs, hearts, livers, spleens, kidneys, testis, adrenals and intraperitoneal fat were examined by the naked eye and weighed. As to serum lipid, neutral fats were measured by using a clinical test kit based on the enzyme method (Triglyceride-E Test, Wako Pure Chemicals Industries Co., Ltd.), and total cholesterol and cholestanol were measured by the method of Kasama (T. Kasama, et al., J. Chromatogr., 400, 241, 1987) with modifications, where the amount of benzoyl chloride was increased by 10 times, the reaction time was doubled, and the measurement was performed by using a high performance liquid chromatography system. Significant differences were determined by t-test for body weights and serum lipids on the basis of the non-treated control mice.
# [2] = Example 1: serum lipids and serum metabolites of mice fed feed supplemented with 0.5% test compound; assay type: in vivo; settings: for Serum metabolite: metabolite of the test compound detected in serum
# Protocol: as §1, §2, §3
# [3] = Example 1: general conditions and autopsical finding; assay type: in vivo, CDF1 male mice; settings: 0.5% in feed, 2 weeks
# Protocol: as §1, §2, §3
# [4] = Example 3: dose response of 5-sitosten-3-one on body weight, feed intake, feed efficiency and intraperitoneal fat; assay type: in vivo, CDF1 male mice; settings: for Intraperitoneal fat: 3 weeks, mean (n=6) ± standard error; for Body weight gain: total throughout the experimental period
# Description: (§4) 5Sitosten-3-one was synthesized from β-sitosterol (Tokyo Chemical Industry Co., Ltd.) according to the method of Parish (Parish, E. J., et al., Synthetic Communication, 22, pp.2839-2847, 1992), and purified by silica gel column chromatography and recrystallization. The content ratio of 24-ethyl isomer and 24-methyl compounds in the synthesized product was 6.5:3.5. As experimental animals, thirty 4-week old CDF1 male mice were purchased from Charles River Japan Inc. and divided into five experimental groups each composed of six mice. The test compounds were administered as the admixture in feeds, and the following groups were provided: (1) 0.1% addition, (2) 0.3% addition, (3) 0.5% addition, (4) a lipid-free feed without the addition of the test compound, and (5) control group without the addition of the test compound. A purified feed (modified AIN, Oriental Yeast Co.) was used as a basic feed, and supplemented with 10% soybean oil (Wako Pure Chemical Industries Co., Ltd.) to prepare solid feeds with or without the addition of the test compound. The lipid-free feed, per se, was processed to obtain solid feed. The animals were fed for a week with the feed for the control without the addition of test compound for acclimatization, and then the animals were allowed to feed with the respective feed ad libitum.
# (§5) Each group of animals was housed in an aluminum cages of 22×33×11(h)cm (6 mice per a cage), and feedings were carried out at a temperature of 24±1° C. and a relative humidity of 55±5%, where light and darkness were controlled change every 12 hours. Measurements of body weights and feed intakes, and observations of general conditions were conducted three times a week. After the feeding for 3 week with the test feeds, the animals were subjected to autopsy and their bloods were collected. As serum lipid analyses, triglyceride, phospholipid, free fatty acid, total cholesterol, and HDL-cholesterol were measured by using a clinical test kit (Wako Pure Chemicals Industries Co., Ltd. ). Significances of the resulting values were examined by the variance analysis for the groups treated with the medicament, or by the t-test for the lipid-free feed group.
# [5] = Example 3: dose response of 5-sitosten-3-one on serum lipids; assay type: in vivo, CDF1 male mice; settings: for Free fatty acid / HDL-cholesterol / Phospholipid / Total cholesterol / Triglyceride: 3 weeks, mean (n=6) ± standard error
# Description: as §4, §5
# [6] = Example 3: general conditions and weight of organs; assay type: in vivo, CDF1 male mice
# Description: as §4, §5
# [7] = Feeding of rats with feed with 0.5% addition for 4 weeks (organ changes); assay type: in vivo; settings: Fischer F344 rats
# Description: The changes observed in the livers, pancreases, kidneys, and lungs in the groups treated with the medicament were commonly observed in the lipid-free feed group, although the degrees were different. In the lipid-free feed group, absolute weight and relative weight of livers increased by 4% and 6%, respectively, and absolute weight and relative weight of kidneys decreased by 12% and 11%, respectively. […] These changes were not observed when Fischer F344 rats were fed with the feed with 0.5% addition for 4 weeks, and therefore, the changes were considered as unique to CDF1 mice.
# [8] = ratio relative to the non-treated control group, CDF1 mice
substance,measurement,setting,value
5-sitosten-3-one (24-ethylcholest-5-en-3-one),Amount of intraperitoneal fat relative to non-treated control mice (FIG. 2),[1]; 0.5% in feed for two weeks,half
same,Body fat (subcutaneous fat and intraperitoneal fat),[1]; 0.5% in feed for two weeks,Remarkable decreases
same,Increase in body weight (FIG. 1),"[1]; 0.5% in feed, compared to non-treated control mice",remarkably suppressed
same,Body weight gain,[1]; [8],56%
same,Intraperitoneal fat,[1]; [8],50%
same,"Cholestanol (serum), mean ± standard error","[2]; 0.5% in feed, 2 weeks, n=6",0 mg/dL
same,"Neutral fats (serum), mean ± standard error","[2]; 0.5% in feed, 2 weeks, n=6",56.5 ± 8.2 mg/dL
same,"Total cholesterol (serum), mean ± standard error","[2]; 0.5% in feed, 2 weeks, n=6",81.3 ± 3.0 mg/dL
same,Serum metabolite,[2]; CDF1 mice,0
same,Serum metabolite,"[2]; CDF1 mice, listed as 5-sitosten-3-one",no cholestanol and other metabolites were detected
same,Serum cholesterol,[2]; [8],51%
same,Serum neutral fats,[2]; [8],15%
same,General conditions,[3],normal
same,Kidney weight at autopsy,[3],slight weight decrease
same,Pathological abnormality in the other organs and tissues,[3]; autopsy,No pathological abnormality
same,Amount of intraperitoneal fat relative to the control group,[4]; 0.1% addition group,83%
same,Feed efficiency (body weight gain/feed intake),[4]; 0.1% addition to feed,0.079
same,Intraperitoneal fat,[4]; 0.1% addition to feed,996.0 ± 53.5 mg
same,Body weight gain,[4]; 0.1% addition to feed,4.89 g/mouse
same,Changes in body weight (FIG. 4),"[4]; 0.1%, 0.3% and 0.5% addition, dose-dependent",body weight decreases were observed
same,Amount of intraperitoneal fat relative to the control group,[4]; 0.3% addition group,63%
same,Feed efficiency (body weight gain/feed intake),[4]; 0.3% addition to feed,0.062
same,Intraperitoneal fat,[4]; 0.3% addition to feed,760.7 ± 36.9 mg
same,Body weight gain,[4]; 0.3% addition to feed,3.62 g/mouse
same,Amount of intraperitoneal fat relative to the control group,[4]; 0.5% addition group,42%
same,Decrease of feed efficiency compared to the control group,[4]; 0.5% addition group,about 80%
same,Feed efficiency (body weight gain/feed intake),[4]; 0.5% addition to feed,0.016
same,Intraperitoneal fat,[4]; 0.5% addition to feed,500.6 ± 79.2 mg
same,Body weight gain,[4]; 0.5% addition to feed,0.84 g/mouse
same,Free fatty acid,[5]; 0.1% addition to feed,1.41 ± 0.04 mEq/dl
same,HDL-cholesterol,[5]; 0.1% addition to feed,68.7 ± 13.6 mg/dL
same,Phospholipid,[5]; 0.1% addition to feed,237.8 ± 8.9 mg/dL
same,Total cholesterol,[5]; 0.1% addition to feed,164.8 ± 4.0 mg/dL
same,Triglyceride,[5]; 0.1% addition to feed,145.4 ± 8.5 mg/dL
same,Change in HDL-cholesterol,[5]; 0.1-0.5% addition groups,no significant change
same,Free fatty acid,[5]; 0.3% addition to feed,1.05 ± 0.06 mEq/dl
same,HDL-cholesterol,[5]; 0.3% addition to feed,72.5 ± 7.7 mg/dL
same,Phospholipid,[5]; 0.3% addition to feed,187.0 ± 12.2 mg/dL
same,Total cholesterol,[5]; 0.3% addition to feed,125.5 ± 7.6 mg/dL
same,Triglyceride,[5]; 0.3% addition to feed,78.0 ± 0.9 mg/dL
same,Triglyceride as compared to the control group (decrease down to),[5]; 0.5% addition group,26%
same,Free fatty acid,[5]; 0.5% addition to feed,0.87 ± 0.05 mEq/dl
same,HDL-cholesterol,[5]; 0.5% addition to feed,61.7 ± 4.3 mg/dL
same,Phospholipid,[5]; 0.5% addition to feed,172.5 ± 8.6 mg/dL
same,Total cholesterol,[5]; 0.5% addition to feed,102.9 ± 6.4 mg/dL
same,Triglyceride,[5]; 0.5% addition to feed,66.8 ± 2.3 mg/dL
same,Liver weight difference,[6]; 0.1% addition group,no significant difference
same,Absolute weights of pancreas,[6]; 0.1-0.5% addition groups,decreased in proportion to the amount of the medicament
same,Changes in relative weight of pancreas,[6]; 0.1-0.5% addition groups,not significant
same,Decrease of absolute weight of kidney,[6]; 0.3% addition group,17%
same,Decrease of relative weight of kidney,[6]; 0.3% addition group,10%
same,Increase of relative weight of livers,[6]; 0.3% addition group,17%
same,Absolute weight of lungs and spleens,[6]; 0.5% addition group,Decreases
same,Decrease of absolute weight of kidney,[6]; 0.5% addition group,32%
same,Decrease of relative weight of kidney,[6]; 0.5% addition group,17%
same,Increase of absolute weight of livers,[6]; 0.5% addition group,15%
same,Increase of relative weight of livers,[6]; 0.5% addition group,40%
same,Relative weights of lungs and spleens,[6]; 0.5% addition group,not different from those of the control group
same,"General conditions (appearance, properties of feces, breath and behavior)","[6]; each experimental group, except for changes in body weight",No abnormality
same,Histopathological change,[6]; organs of treated CDF1 mice,absence of any histopathological change
same,"Organ weight changes (livers, pancreases, kidneys, lungs)",[7],not observed
